In US11350582B2, “Plant varieties by application of endocides” (Stephen F. Austin State University, priority 2015, dated 2022):
Where two headings read alike, the source gives them in different places.

Columns and labels:
S. molesta [1] = assay: Field test in an isolated pond, foliar spray with DAWN dish soap (Example 16); type: in vivo, Salvinia molesta; settings: 0.5% with 0.25% soap; for small S. molesta plants dead: 48 h after the first treatment; for new growths induced (small plants): after first treatment; for fate of newly emerged type I plants: after the second treatments; for type III S. molesta plants on the top layer of the dense mats killed or severely injured: within 48 hrs of the first treatment
Description: General Experimental Procedure: Field experiments were conducted in an isolated pond in east Texas, United States. The pond was infested with type III S. molesta plants that formed dense mats along the edge and type I and II plants floating on the water surface. 4-hydroxybenzoic and 3,4-dihydroxybenzoic acids were purchased from a commercial source (99.9%, HPLC analysis). 500 m^2 of S. molesta was treated with 50 L 0.5% 4-hydroxybenzoic acid mixed with 0.25% DAWN® dish soap and 500 m^2 of S. molesta was treated with 50 L 0.5% 3,4-dihydroxybenzoic acid mixed with 0.25% DAWN® dish soap by Solo 433 motorized backpack sprayer. Plant growth and survival status were documented through photographs and the living biomass was sampled 48 hrs after each treatment. The experimental species for selectivity tests were mainly common species associate with S. molesta or species growing in nearby habitats. The species included one fern species, Carolina mosquito fern (A. caroliniana), and 11 herbaceous invasive aquatic species of angiosperms (flowering plants), namely, water hyacinth (Eichharnia crassipes (Mart.) Solms) of the family Pontederiaceae, least duckweed (Lemna minuta) and Brazilian watermeal (Wolffia brasillensis Weddell) of the family Araceae, and hydrilla (Hydrilla verticillata (L.f.) Royle) of the family Hydrocharitaceae, alligator weed (Alternanthera philoxeroides Griseb.) of the family Amaranthaceae, knotweed (Polygonum sp.) and redvine (Brunnichia ovata Walter) of the family Polygonaceae, water primrose (Ludwigia sp.) of the family Onagraceae, cattail (Typha latifolia L.) of the family Typhaceae, proliferating bulrush (Isolepis prolifera (Rottb.) R. Br.) of the family Cyperaceae, and coontail (Ceratophyllum demersum L.) of the family Ceratophyllaceae and four woody plants, namely, baldcypress (Taxodium distichum (L.) Rich.) of the family Cupressaceae, loblolly pine (Pinus taeda L.) of the family Pinaceae, Chinese tallow (T. sebifera), and buttonbush (Cephalanthus occidentalis L.) of the family Rubiaceae. At least 30 plants for each of 12 herbaceous species and three seedlings of each of the four woody species were sprayed during the treatment of S. molesta.

S. molesta [2] = assay: Mutation induction in giant salvinia by spray, greenhouse (Example 12); type: in vivo, Salvinia molesta
Description: General Experimental Procedure: 4-hydroxybenzoic acid (>95%, HPLC analysis) and 3,4-dihydroxybenzoic acid (>95%) were isolated from S. molesta matter by using the method as described in Li, Wang et al. 2013. 4-Hydroxybenzoic and 3,4-dihydroxybenzoic acids were prepared as 50 mL experimental solution with NANOPURE™ water at eight concentrations, 0.015, 0.031, 0.063, 0.125, 0.25, 0.5, 1, and 2%, respectively.
In each of 17 containers (14×15 cm, 0.68 L each), nine healthy and untreated living plants of S. molesta were cultured in tap water in a greenhouse (30° C. during the day time and 20° C. at night). The nine plants included three type I plants (approximately 1 g in fresh weight per plant), three type II plants (approximately 2 g per plant), and three type III plants (approximately 4 g per plant). The plants in each container were sprayed with 10 mL NANOPURE™ water or an experimental compound at various concentrations. Plant growth, morphological variation, and survival status were documented and photographed in each treatment for six weeks after the treatment. Then any new developed plants in each container were transferred into a container with new water for 10 weeks of culture observations.

Azolla caroliniana = assay: Greenhouse spray test on Carolina mosquito fern; type: in vivo; settings: 0.5% concentration; 10 mL spray; fifth day
Description: 4-Hydroxybenzoic and 3,4-dihydroxybenzoic acids were also tested against Carolina mosquito fern (Azolla caroliniana Willd.) (family Azollaceae). Six containers (14×15 cm, 0.68 L) with full cover of A. caroliniana were included in the tests: two without any treatments as controls, two were sprayed with 10 mL 0.5% 4-hydroxybenzoic acid each, and the others were sprayed with 10 mL 0.5% 3,4-dihydroxybenzoic acid each. Plant growth and survival status were documented and photographed in each treatment on the fifth day after the treatment.

dihuang = settings: in vivo; cited from earlier work
S. molesta [3] = assay: Phytotoxic analysis by pipet application on upper or lower leaf surface; type: in vivo, Salvinia molesta; settings: Salvinia molesta, topical, 72 h
Description: General Experimental Procedure: 4-Hydroxybenzoic and 3,4-dihydroxybenzoic acids and 14 of their analogs were purchased commercially. Each of 16 compounds were prepared as 5 mL experimental solutions with NANOPURE™ water at 1% concentration. A total of 102 healthy and untreated living type III plants of S. molesta (approximately 10 g in fresh weight each) were cultured and tested in 17 plastic containers (23×23 cm, 2.37 L) with six plants in each container in a greenhouse (30° C. during the day time and 20° C. at night). The first container served as the controls without any treatment, the plants in each of the other 16 containers were treated by one of the 16 testing compounds, respectively. The plants in each container were randomly classified into two groups evenly. For each plant in the first group, 10 μL of 1% experimental solution was applied by pipet on the upper surface of each blade of the six pairs of large floating leaves close to the terminal bud. For each plant in the second group, 10 μL of 1% experimental solution was applied by pipet on the lower surface of each blade of the six pairs of large floating leaves close to the terminal bud. The leaf surfaces were examined for damage and analyzed 72 hrs after the treatments.

[4] = system: common species associate with S. molesta or species growing in nearby habitats; assay: Field selectivity test on associated plant species (Example 16); type: in vivo; settings: 0.5% with 0.25% soap; after two foliar applications
Description: General Experimental Procedure: Field experiments were conducted in an isolated pond in east Texas, United States. The pond was infested with type III S. molesta plants that formed dense mats along the edge and type I and II plants floating on the water surface. 4-hydroxybenzoic and 3,4-dihydroxybenzoic acids were purchased from a commercial source (99.9%, HPLC analysis). 500 m^2 of S. molesta was treated with 50 L 0.5% 4-hydroxybenzoic acid mixed with 0.25% DAWN® dish soap and 500 m^2 of S. molesta was treated with 50 L 0.5% 3,4-dihydroxybenzoic acid mixed with 0.25% DAWN® dish soap by Solo 433 motorized backpack sprayer. Plant growth and survival status were documented through photographs and the living biomass was sampled 48 hrs after each treatment. The experimental species for selectivity tests were mainly common species associate with S. molesta or species growing in nearby habitats. […]

[5] = 2% solution, 10 mL spray on nine plants (types I, II, III), six weeks

SMILES | small S. molesta plants dead (S. molesta [1]) [%] | new growths induced (small plants) (S. molesta [1]) | fate of newly emerged type I plants (S. molesta [1]) | type III S. molesta plants on the top layer of the dense mats killed or severely injured (S. molesta [1]) [%] | survival and damage of S. molesta plants (S. molesta [2]; [5]) | A. caroliniana eliminated (Azolla caroliniana) [%] | effect on growth of dihuang (dihuang) | damage to other species tested for selectivity [4] | further results
O=C(O)c1ccc(O)c(O)c1 [3,4-dihydroxybenzoic acid] | > 80 | type I only | all newly emerged type I plants were killed | 100 | killed all of the plants and no new growth was observed | 100 | inhibit some growth | none of the other species tested for selectivity except A. caroliniana were severely damaged or killed | mutation induction in S. molesta (S. molesta [2]; 0.25, 0.5, and 1%): induced small leaf mutations; induced new growth type (S. molesta [2]; 0.5% or 1%, six weeks of observation): the new plants remained as type I; pest or weed control at 1 % (S. molesta [3]; read-out: Inhibition (%) Lower leaf Application, 10 μL of 1% solution per blade, lower surface): 72.2%; pest or weed control at 1 % (S. molesta [3]; read-out: Inhibition (%) Upper leaf Application, 10 μL of 1% solution per blade, upper surface): > 85%
O=C(O)c1ccc(O)cc1 [4-Hydroxybenzoic acid] | > 90 | type I only | all newly emerged type I plants were killed | 100 | died and showed no new growth | 100 | inhibit some growth | none of the other species tested for selectivity except A. caroliniana were severely damaged or killed | survival and damage of S. molesta plants (S. molesta [2]; 0.125% or lower concentrations, six weeks): no significant damage; survival and damage of S. molesta plants (S. molesta [2]; 0.25% solution, 10 mL spray on nine plants, first week): killed all floating leaves of the small plants (type I and II) and partially injured floating leaves of the type III plants; induced new growth type (S. molesta [2]; 0.25% solution, six weeks): Seven plants developed cupped floating leaves (type II); survival and damage of S. molesta plants (S. molesta [2]; 0.5% solution, 10 mL spray on nine plants): killed almost all floating leaves of the nine treated plant within a week; induced new growth type (S. molesta [2]; 0.5% solution, six weeks): all other newly emerged plants from axillary buds remained as type I; survival and damage of S. molesta plants (S. molesta [2]; 1% solution, 10 mL spray on nine plants (types I, II, III)): all six type I or II plants were dead without new growth within two days of the treatment; induced new growth type (S. molesta [2]; 1% solution, end of second week): three small plants (type I) emerged from the axillary buds of the type III plants; pest or weed control at 1 % (S. molesta [3]; 10 μL of 1% solution per blade, lower surface, read-out: Inhibition (%) Lower leaf Application): 100%; pest or weed control at 1 % (S. molesta [3]; 10 μL of 1% solution per blade, upper surface, read-out: Inhibition (%) Upper leaf Application): > 85%
